Measured values published in patent US20250034200A1, “Prodrugs of Neurosteroid Analogs and Uses Thereof” (priority 2021, published 2025).
Values after ≈ are worked out from the molar mass of the structure shown. Where a name gives a salt, the structure may show the parent alone. Read-outs that look alike come from different tables or passages of the source.

Tests used:
[1] = Nephelometry (aqueous solubility); assay type: physicochemical; conditions: DPBS with 1% DMSO, aqueous buffer, kinetic from dmso stock, DPBS pH 7.0-7.3, 1% DMSO, 25° C.
Excerpt: Well A1 of the plate contained 100% DMSO.

[2] = Plasma stability assay (LC-MS/MS); assay type: in vitro ADME; conditions: human plasma, 37° C., 3 μM
Method: Procaine and procainamide were purchased from Sigma Aldrich. HPLC-grade acetonitrile, water, methanol, and formic acid were purchased from Fisher Scientific. Human plasma (Cat. No. […]2N) was obtained from BIOIVT, and PBS (1×Dulbecco's, pH 7.4) from Thermo Fisher Scientific.
Test compounds were dissolved in DMSO to make a stock solution of 10 mM and then diluted to 500 μM in buffer or 70% methanol. Human plasma was thawed at ambient temperature and aliquoted (994.0 μL) to a 1.5 mL Eppendorf tube in duplicates (vials A and B) for each compound. The plasma was incubated at 37° C. for 10 min in an incubator shaker at 150 RPM; the reaction was initiated by addition of the test compound (6.0 μL), followed by vortex mixing. The total reaction volume was 1000 μL, the final organic solvent concentrations were […] (when 70% methanol was used for dilution) and 0.03% DMSO, and the final concentration of the test compound was 3 μM. The spiked plasma samples were incubated at 37° C. for 4 h. The reactions were terminated at time point 0, 15, 30, 60, 120, 180, and 240 min by taking a 100 μL aliquot from the test incubation mixture and immediately quenching it by adding it into ice-cold acetonitrile or methanol (150 μL) containing 2 μM internal standard (ISTD), followed by vortex mixing. The ISTD was d5-7-ethoxy coumarin. The samples were then centrifuged at 15000 RPM for 25 min at 4° C., and the supernatant was transferred to an LC-MS vial for analysis by LC-MS/MS. Each time point was tested in duplicates followed by in-between blank washes to avoid carryover and to equilibrate the column.
Procaine (poor plasma stability) and procainamide (good plasma stability) were used as controls at the same concentration as that of the test compound. These controls were run in parallel to test the assay's competency. Matrix blank was prepared by adding acetonitrile or methanol containing ISTD to plasma samples without any of the test or control compounds. Also, an additional control sample was made to simply monitor compound degradation in PBS buffer.
Below is a summary of samples prepared for a given test compound in a typical plasma stability assay: • Test compound (TC): 994 μL human plasma+6.0 μL TC (Vial A) 994 μL human plasma+6.0 μL TC (Vial B) • Control: 596 μL human plasma+3.6 μL (procaine+procainamide) • Blank matrix: 500 μL PBS buffer+100 μL human plasma • Additional control: 142 μL PBS buffer+0.9 μL TC • Quenching mixture: 150 μL acetonitrile or methanol with ISTD (2 μM) • Final volume: 250 μL (100 μL from the incubation mixture+150 μL quenching mixture; final ISTD conc.: 1.2 μM)
LC-MS/MS analysis was performed using Agilent 1260 Infinity II HPLC, coupled with an Agilent G6460 triple quadrupole mass spectrometer (Agilent Technologies, USA). The data were acquired and processed using the Agilent 6460 Quantitative Analysis data processing software.
Reverse-phase HPLC separation for each compound was achieved on an Agilent InfinityLab Poroshell 120 C18 column (2.1×50 mm, 2.7 μm) with a mobile phase composed of methanol/water with 0.1% formic acid or acetonitrile/water with 0.1% formic acid at a flow rate of 0.5 mL/min. Each method was developed in the presence of the ISTD. The column temperature was maintained at 40° C. The detection was operated using the Agilent Jet-Stream electrospray positive ionization under the multiple reaction monitoring mode. The mass spec conditions were as follows: dwell time 100 ms; gas flow 10 L/min; nebulizer pressure 45 psi; delta EMV 200 V.
Plots of time (x-axis) vs. the natural logarithm of percent parent remaining (y-axis) were subsequently constructed to determine the slope. Finally, the plasma stability was evaluated using the following equation: […]

[3] = Aqueous stability assay (HPLC, pseudo first-order half-life); assay type: physicochemical; conditions: DPBS pH 7.0-7.3, 1 mg/mL, room temperature; for half-life at 1 mg/mL / half-life: buffer, read-out: PBS t1/2 (converted)
Method: Aqueous stability experiments were performed on an Agilent 1100 HPLC equipped with an Agilent 1200 autosampler. HPLC grade solvents were exclusively used during analysis, with acetonitrile being purchased from Sigma Aldrich, and water and formic acid provided by Fisher Scientific. […]
[…] All mixtures were then sonicated for 5 min or stirred until complete dissolution was achieved. Any precipitate observed in sample solutions was filtered with a PTFE syringe filter prior to analysis. Immediately after sample preparation, injection by the HPLC autosampler was performed, which was recorded as the initial time point (t=0 min). Samples were then kept in the autosampler at room temperature and injected at designated intervals without additional filtration or sample modification. Next, the area of the parent peak in each chromatogram was determined by automated integration in the Agilent ChemStation software. Pseudo first-order half-lives were then ascertained by calculating the percent of the parent compound remaining after each time point. Plots of time (x-axis) vs. the natural logarithm of percent parent remaining (y-axis) were subsequently constructed to determine the slope. Finally, the aqueous stability was evaluated using the following equation:
The HPLC conditions were as follows: injection volume, 1 μL; column temperature: 40° C.; detector: 254 nm; stationary phase: Zorbax Eclipse XDB-C18 (4.6×150 mm, 5 μm); flow rate: 1 mL/min; mobile phase: 80-95% acetonitrile in H2O (0.1% formic acid).

[4] = read-out: Plasma t1/2 (converted)

With `C/C(=N\OC(=O)NCCN)[C@H]1CC[C@H]2[C@@H]3CCC4=CC(=O)CC[C@]4(C)[C@H]3CC[C@]12C` [32a, (8S,9S,10R,13S,14S,17S)-17-((E)-1-((((2-aminoethyl)carbamoyl)oxy)imino)ethyl)-10,13-dimethyl-1,2,6,7,8,9,10,11,12,13,14,15,16,17-tetradecahydro-3H-cyclopenta[a]phenanthren-3-one hydrochloride] the solubility at 90 min [1] was greater than 750 µM, the “Plasma t1/2” value [2] was greater than 2 h and the half-life at 1 mg/mL [3] was greater than 30 h.
Molecule `CNCCN(CCO)C(=O)O/N=C(\C)[C@H]1CC[C@H]2[C@@H]3CCC4=CC(=O)CC[C@]4(C)[C@H]3CC[C@]12C` [32c, 2-((((((E)-1-((8S,9S,10R,13S,14S,17S)-10,13-dimethyl-3-oxo-2,3,6,7,8,9,10,11,12,13,14,15,16,17-tetradecahydro-1H-cyclopenta[a]phenanthren-17-yl)ethylidene)amino)oxy)carbonyl)(2-hydroxyethyl)amino)-N-methylethan-1-aminium chloride] has a solubility at 90 min [1] greater than 500 µM, a half-life at 3 µM [2, 4] of 1.7 h and a half-life at 1 mg/mL [3] of 24.8 ± 1.1 h.
`C/C(=N\OC(=O)NC[C@@H]1CCCCN1)[C@H]1CCC2[C@@H]3CCC4=CC(=O)CC[C@]4(C)[C@H]3CC[C@@]21C` (stereo partly drawn) [32i, (8S,9S,10R,13S,17S)-10,13-dimethyl-17-((E)-1-((((((S)-piperidin-2-yl)methyl)carbamoyl)oxy)imino)ethyl)-1,2,6,7,8,9,10,11,12,13,14,15,16,17-tetradecahydro-3H-cyclopenta[a]phenanthren-3-one hydrochloride] showed a solubility at 90 min [1] greater than 750 µM and a half-life at 1 mg/mL ([3]; d (days)) of 684 h.
With `CNCCN(C(=O)O/N=C(\C)[C@H]1CC[C@H]2[C@@H]3CCC4=CC(=O)CC[C@]4(C)[C@H]3CC[C@]12C)C1CCC1.O=C(O)C(F)(F)F` [53c, (E)-5-cyclobutyl-9-((8S,9S,10R,13S,14S,17S)-10,13-dimethyl-3-oxo-2,3,6,7,8,9,10,11,12,13,14,15,16,17-tetradecahydro-1H-cyclopenta[a]phenanthren-17-yl)-7-oxa-2,5,8-triazadec-8-en-6-one 2,2,2-trifluoroacetate] the solubility at 90 min [1] was greater than 750 µM and the “PBS t1/2” value [3] was 11.79 ± 0.51 h.
With `CNCCN(CCN(C)C)C(=O)O/N=C(\C)[C@H]1CC[C@H]2[C@@H]3CCC4=CC(=O)CC[C@]4(C)[C@H]3CC[C@]12C.O=C(O)C(F)(F)F` [53f, (E)-9-((8S,9S,10R,13S,14S,17S)-10,13-dimethyl-3-oxo-2,3,6,7,8,9,10,11,12,13,14,15,16,17-tetradecahydro-1H-cyclopenta[a]phenanthren-17-yl)-2-methyl-5-(2-(methylamino)ethyl)-7-oxa-2,5,8-triazadec-8-en-6-one 2,2,2-trifluoroacetate] the solubility at 90 min [1] was greater than 500 µM and the “PBS t1/2” value [3] was 2.17 ± 0.02 h.
In the case of `CNCCN(CCNC)C(=O)O/N=C(\C)[C@H]1CC[C@H]2[C@@H]3CCC4=CC(=O)CC[C@]4(C)[C@H]3CC[C@]12C.Cl.Cl` [53i, (E)-9-((8S,9S,10R,13S,14S,17S)-10,13-dimethyl-3-oxo-2,3,6,7,8,9,10,11,12,13,14,15,16,17-tetradecahydro-1H-cyclopenta[a]phenanthren-17-yl)-5-(2-(methylamino)ethyl)-7-oxa-2,5,8-triazadec-8-en-6-one dihydrochloride], the solubility at 90 min [1] is reported as greater than 750 µM and the “PBS t1/2” value [3] is reported as 1.51 ± 0.05 h.
With `C/C(=N\OC(=O)N(CCN)CCN)[C@H]1CC[C@H]2[C@@H]3CCC4=CC(=O)CC[C@]4(C)[C@H]3CC[C@]12C.O=C(O)C(F)(F)F.O=C(O)C(F)(F)F` [53j, (8S,9S,10R,13S,14S,17S)-17-((E)-1-(((bis(2-aminoethyl)carbamoyl)oxy)imino)ethyl)-10,13-dimethyl-1,2,6,7,8,9,10,11,12,13,14,15,16,17-tetradecahydro-3H-cyclopenta[a]phenanthren-3-one bis(2,2,2-trifluoroacetate)] the solubility at 90 min [1] was greater than 750 µM and the “PBS t1/2” value [3] was 10.13 ± 0.41 h.
`C/C(=N\OC(=O)N(C)CCO)[C@H]1CC[C@H]2[C@@H]3CCC4=CC(=O)CC[C@]4(C)[C@H]3CC[C@]12C` [compound 33, (8S,9S,10R,13S,14S,17S)-17-((E)-1-((((2-hydroxyethyl)(methyl)carbamoyl)oxy)imino)ethyl)-10,13-dimethyl-1,2,6,7,8,9,10,11,12,13,14,15,16,17-tetradecahydro-3H-cyclopenta[a]phenanthren-3-one] showed a solubility at 90 min [1] of 124 ± 3.28 µM (≈ 53.3 µg/mL) and a half-life [3] of 38.5 h.
In the case of `C/C(=N\OC(=O)OCCN(C)C)[C@H]1CC[C@H]2[C@@H]3CCC4=CC(=O)CC[C@]4(C)[C@H]3CC[C@]12C.Cl` [compound 35, (E)-9-((8S,9S,10R,13S,14S,17S)-10,13-dimethyl-3-oxo-2,3,6,7,8,9,10,11,12,13,14,15,16,17-tetradecahydro-1H-cyclopenta[a]phenanthren-17-yl)-2-methyl-5,7-dioxa-2,8-diazadec-8-en-6-one hydrochloride], the “Plasma t1/2” value [2] is reported as 7.2 h and the half-life [3] is reported as 3.5 ± 0.6 h.
In the case of `CNCCCN(C)C(=O)O/N=C(\C)[C@H]1CC[C@H]2[C@@H]3CCC4=CC(=O)CC[C@]4(C)[C@H]3CC[C@]12C.Cl` [compound 39, (E)-10-((8S,9S,10R,13S,14S,17S)-10,13-dimethyl-3-oxo-2,3,6,7,8,9,10,11,12,13,14,15,16,17-tetradecahydro-1H-cyclopenta[a]phenanthren-17-yl)-6-methyl-8-oxa-2,6,9-triazaundec-9-en-7-one hydrochloride], the “Plasma t1/2” value [2] is reported as greater than 4 h and the half-life ([3]; d (days)) is reported as greater than 720 h.
Work on `CNCC(C)(C)CN(C)C(=O)O/N=C(\C)[C@H]1CCC2[C@@H]3CCC4=CC(=O)CC[C@]4(C)[C@H]3CC[C@@]21C.Cl` (stereo partly drawn) [compound 40, (E)-10-((8S,9S,10R,13S,17S)-10,13-dimethyl-3-oxo-2,3,6,7,8,9,10,11,12,13,14,15,16,17-tetradecahydro-1H-cyclopenta[a]phenanthren-17-yl)-4,4,6-trimethyl-8-oxa-2,6,9-triazaundec-9-en-7-one hydrochloride] yielded a half-life [2, 4] greater than 4 h and a half-life ([3]; d (days)) of 547 h.
In the case of `C/C(=N\OC(=O)N(C)CCNCCOC(F)(F)F)[C@H]1CC[C@H]2[C@@H]3CCC4=CC(=O)CC[C@]4(C)[C@H]3CC[C@]12C.Cl` [compound 41, (E)-12-((8S,9S,10R,13S,14S,17S)-10,13-dimethyl-3-oxo-2,3,6,7,8,9,10,11,12,13,14,15,16,17-tetradecahydro-1H-cyclopenta[a]phenanthren-17-yl)-1,1,1-trifluoro-8-methyl-2,10-dioxa-5,8,11-triazatridec-11-en-9-one hydrochloride], the half-life [2, 4] is reported as 1.1 h and the half-life [3] is reported as 28.5 ± 1.8 h.
